US7547763B2, “Sequences of an Ih ion channel and use thereof” (Forschungszentrum Julich GmbH, priority 1998, dated 2009)
Values belong to the compound of their own block, whether it stands above or below them.

Columns and labels:
SPIH channel [1] = assay: Blockade of the SPIH channel by extracellular Cs+ on outside-out membrane patches; assay type: cell-based, Strongylocentrotus purpuratus
Protocol: (§1) cDNA coding the SPIH polypeptide was transiently expressed in HEK293 cells, as described earlier (Baumann et al, 1994). SPIH-controlled currents were recorded with the patch-clamp method in the whole-cell configuration and cell-free membrane patches. The composition of various bath and pipette solutions is indicated in the legends of the figures (see below). The channels were activated by stepping the membrane voltage from +10 mV to various negative voltage values. Leakage currents were subtracted using a P/8 protocol. The voltage dependence of the probability that the channel is open was determined from tail currents at +10 mV. The blockade of the SPIH channel by Cs2+ was analyzed with outside-out membrane patches in the presence of 1 mM cAPM in a pipette solution. The solutions in the bath contained 0.03 to 10 mM CsCl. Relative ion permeabilities were calculated from the respective shift of Vrev, which was measured on cell-free inside-out membrane patches, when 100 mM K^+ in the bath had been replaced by Na^+, Li^+, Rb^+ or Cs^+.

SPIH channel [2] = assay: Whole-cell patch-clamp of SPIH currents in transfected HEK293 cells, cyclic nucleotides or caged derivatives in the pipette; assay type: cell-based, Strongylocentrotus purpuratus
Protocol: as §1, with “The voltage dependence of the probability that the channel is open was determined from tail currents at +10 mV. The blockade of the SPIH channel by Cs2+ was analyzed with outside-out membrane patches in the presence of 1 mM cAPM in a pipette solution.” left out, “Cs^+. […] The voltage-step protocol is the same as in FIG. 2A. The bath contained (mM): 135 NaCl, 5 KCl, 1.8 CaCl2, 2.8 MgCl2 and 5 Hepes-NaOH at pH 7.4; the pipette solution contained […]” for “Cs^+.”

SPIH channel [3] = molecular target: T1, SPIH channel (Strongylocentrotus purpuratus, UniProt O76977); assay: Patch-clamp of SPIH currents on excised inside-out membrane patches of transfected HEK293 cells, modulation by cyclic nucleotides; assay type: cell-based
T1 sequence (O76977 1-767): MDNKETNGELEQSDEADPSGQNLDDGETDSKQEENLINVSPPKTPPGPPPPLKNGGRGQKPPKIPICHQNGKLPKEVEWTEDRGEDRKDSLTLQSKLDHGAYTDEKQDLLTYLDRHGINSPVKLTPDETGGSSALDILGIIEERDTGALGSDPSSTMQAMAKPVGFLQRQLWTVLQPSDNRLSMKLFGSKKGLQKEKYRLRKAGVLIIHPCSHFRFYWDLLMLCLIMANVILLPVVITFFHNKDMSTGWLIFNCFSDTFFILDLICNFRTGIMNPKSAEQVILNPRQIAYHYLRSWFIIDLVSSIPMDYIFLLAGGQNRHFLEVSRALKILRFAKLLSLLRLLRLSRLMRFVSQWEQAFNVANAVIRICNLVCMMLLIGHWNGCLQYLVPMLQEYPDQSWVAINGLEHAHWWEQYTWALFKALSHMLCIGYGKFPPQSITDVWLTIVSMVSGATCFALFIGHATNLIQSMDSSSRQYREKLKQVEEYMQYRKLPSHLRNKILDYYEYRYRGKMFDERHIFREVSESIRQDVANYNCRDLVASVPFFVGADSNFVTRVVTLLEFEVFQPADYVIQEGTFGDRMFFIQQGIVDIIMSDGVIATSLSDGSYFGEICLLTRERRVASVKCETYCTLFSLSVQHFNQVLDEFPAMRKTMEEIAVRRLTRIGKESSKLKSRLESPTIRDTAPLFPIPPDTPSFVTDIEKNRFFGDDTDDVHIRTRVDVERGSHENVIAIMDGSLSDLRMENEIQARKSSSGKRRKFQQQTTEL
Protocol: as §1

Ki (SPIH channel [1]; at −70 mV, 1 mM cAMP in pipette, Hill fit, read-out: inhibitory constant Ki for block of standardized current I/Imax): 245 µM
Structure (SMILES): [Cs+] [Cs^+]
effect on currents (SPIH channel [1]; 10 mM Cs+ in the bath): inward currents disappeared completely

enhancement of the amplitudes of the voltage-activated currents (SPIH channel [3]; 1 mM cAMP, excised membrane patches): up to 20 fold | Hill coefficient n of the cAMP dependence of the SPIH current (SPIH channel [3]; inside-out patches, fit of Hill equation, mean of 10 experiments): 1.05 | V1/2 of voltage dependence of Po (SPIH channel [3]; inside-out-patch tail currents, 1 mM cAMP in bath, Boltzmann fit): −84.7 mV
Structure (SMILES): Nc1ncnc2c1ncn2[C@@H]1O[C@@H]2COP(=O)(O)O[C@H]2[C@H]1O [cAMP]
V1/2 of voltage dependence of Po (SPIH channel [2]; whole-cell tail currents, 1 mM cAMP in pipette, Boltzmann fit): −50.8 mV

Structure (SMILES): Nc1nc2c(ncn2[C@@H]2O[C@@H]3COP(=O)(O)O[C@H]3[C@H]2O)c(=O)[nH]1 [cGMP]
effect on SPIH-induced whole-cell currents (SPIH channel [2]; 1 mM in the pipette): also changed the SPIH-induced currents | effect on amplitude of the SPIH currents (SPIH channel [3]; cGMP concentrations of up to 1 mM, excised membrane patches): did not change the amplitude of the SPIH currents
